Counter-ions that a name gives are not always drawn. Like-named read-outs stand apart in the source and are kept apart here.

Series [1] relates to SARS-CoV-2. As to conditions: cited from earlier work; for EC50: read-out: SARS-CoV-2 EC50.
The subject of series [2] is SARS-CoV-2 in Vero cells. As to the kind of experiment: microbe, parasite or virus in culture. The settings on record: Severe acute respiratory syndrome coronavirus 2, Vero.
Series [3] has as its system SARS-CoV-2 in Vero cells. As to conditions: for IC50: * one replicate only.
For series [4], the system named is SARS-CoV-2. It is filed as in vivo, Syrian hamster. As to conditions: doses, frequency, duration as in Table 1.
Series [5] relates to SARS-CoV-2 in Calu-3 cells. Nature of the series: microbe, parasite or virus in culture. As to conditions: Severe acute respiratory syndrome coronavirus 2, Calu-3, read-out: Calu-3 cells Average IC50.
Series [6] relates to SARS-CoV-2 in Calu-3 cells. As to conditions: for IC50: read-out: Calu-3 cells Average IC50, * one replicate only.
Series [7] is described as follows: Population PK model from satellite PK studies in hamster.
A short description of a further series: in vitro. The settings on record: African green monkey, Selectivity Index (Vero cells).
The conditions of series [8]: female, LGV Golden Syrian, hamster, in vivo.
Setting [9] is: read-out: VERO cells Average IC50, With Pgp pump inhibitor, 2 μM CP-100356, * one replicate only.
[10] abbreviates: read-out: VERO cells Average IC50, Without Pgp pump inhibitor, * one replicate only.
Setting [11] is: read-out: VERO cells Average IC50, Without Pgp pump inhibitor.
Where [12] appears, read: hamster of the study's median weight (80-131 g).
Where [13] appears, read: read-out: VERO cells Average IC50, With Pgp pump inhibitor, 2 μM CP-100356.

The EC50 is the concentration needed to bring the measured effect to its halfway point. Regarding `Cc1c(-c2ccc(-c3ccccc3F)cc2)nc2ccc(F)cc2c1C(=O)O` [Brequinar, brequinar], the 50% effective concentration (EC50) in the series with SARS-CoV-2 [1] (host cell A549-ACE) is 0.05 µM; in the series on SARS-CoV-2 [1] (host cell Caco-2), above 50 µM; in the series on SARS-CoV-2 [1] (host cell Huh7.5) it was 0.5 µM; in the series on SARS-CoV-2 [1] (host cell Vero E6, ref 51) it was 0.12 µM.

In the case of `CN(Cc1cc(Br)cc(Br)c1N)C1CCCCC1` [Bromhexine, bromhexine], the half-maximal effective concentration (EC50) in the series with SARS-CoV-2 [1] (host cell Vero E6, ref 47) was 21.7 µM.

The term IC50 denotes the concentration that gives 50% inhibition. As to `CN(C)C(=O)COC(=O)Cc1ccc(OC(=O)c2ccc(NC(=N)N)cc2)cc1` [Camostat mesylate, camostat mesylate], the 50% inhibitory concentration (IC50) was above 50 µM with SARS-CoV-2 in Vero cells [2] (setting [9]), above 50 µM in the series on SARS-CoV-2 in Vero cells [2] (setting [10]) and 3 µM in series [5]. In addition, in the series with SARS-CoV-2 in Vero cells [3], the “Activity In Vitro; Potency EC50 or IC50 < 10 µM; Vero Cells” value (“Activity In Vitro … Vero Cells” for short) is listed as “No (Potency EC50 or IC50 < 10 µM)”. In addition, the “Activity in SARS-CoV-2 Hamster Model” value in the series with SARS-CoV-2 [4] was “No”. Further, the EC50 in the series on SARS-CoV-2 [1] (host cell Calu-3) was 0.083 µM. Besides, the “Activity In Vitro; Potency EC50 or IC50 < 10 µM; Calu-3 Cells” value (shortened to “Activity In Vitro … Calu-3 Cells”) in [6] was “Yes (Potency EC50 or IC50 < 10 µM)”.

Take `COc1cc2c(c(OC)c1OC)-c1ccc(OC)c(=O)cc1[C@@H](NC(C)=O)CC2` [Colchicine, colchicine]: the concentration for half-maximal inhibition (IC50) with SARS-CoV-2 in Vero cells [2] (read-out: VERO cells Average IC50, With Pgp pump inhibitor) was 3.7 µM; in the series on SARS-CoV-2 in Vero cells [2] (setting [11]), 8.4 µM. The “Activity In Vitro … Vero Cells” value in the series on SARS-CoV-2 in Vero cells [3] was “Yes (Potency EC50 or IC50 < 10 µM)”. Besides, the “Activity In Vitro … Calu-3 Cells” value in series [6] was “Yes (Potency EC50 or IC50 < 10 µM)”.

Regarding `C[C@@]1(F)[C@H](O)[C@@H](CO)O[C@H]1n1ccc(=O)[nH]c1=O` [GS-331007], in series [7] (setting [12]), the “CL/F, elimination clearance, population estimate (%RSE)” value (from here on “CL/F, elimination clearance … (%RSE)”) is recorded as 390 (17.4) mL/h and the “VC/F, central volume of distribution, population estimate (%RSE)” value (shortened to “VC/F, central volume … (%RSE)”) is 2750 (17.0) mL.

Take `OC(c1cc(C(F)(F)F)nc2c(C(F)(F)F)cccc12)C1CCCCN1` (centres unmarked) [Mefloquine, mefloquine]: the selectivity ratio came to 6.2 in the series “in vitro” (With Pgp pump inhibitor) and 3.6 in the series “in vitro” (Without Pgp pump inhibitor). Moreover, the IC50 in the series on SARS-CoV-2 in Vero cells [2] (setting [9]) was found to be 2.8 µM; with SARS-CoV-2 in Vero cells [2] (setting [10]), 5.7 µM; in series [5], 13.2 µM. Moreover, the “Activity In Vitro … Vero Cells” value in the series on SARS-CoV-2 in Vero cells [3] was “Yes (Potency EC50 or IC50 < 10 µM)”. In addition, the “Activity In Vitro … Calu-3 Cells” value in [6] is listed as “No (Potency EC50 or IC50 < 10 µM)”.

Regarding `CCNCc1cc(Nc2ccnc3cc(Cl)ccc23)ccc1O` [N-desethylamodiaquine], in series [8], the “CL/F, elimination clearance … (%RSE)” value is 804 (9.48%) mL/h; the “Q/F (Q1/F), inter-compartment clearance, population estimate (%RSE)” value is listed as 229 (27.6%) mL/h; the “VC/F, central volume … (%RSE)” value is recorded as 1890 (42.2%) mL; the “VP/F, peripheral volume of distribution, population estimate (%RSE)” value is 3050 (77.1%) mL.

In the case of `CC(=O)Oc1ccccc1C(=O)Nc1ncc([N+](=O)[O-])s1` [Nitazoxanide, nitazoxanide], the selectivity ratio in the series “in vitro” (With Pgp pump inhibitor) is above 14.7; in “in vitro” (Without Pgp pump inhibitor), above 7.9. Also, the figures for the IC50 (with SARS-CoV-2 in Vero cells [2] (setting [9]); with SARS-CoV-2 in Vero cells [2] (setting [10]); in series [5]) were 3.4 µM, 6.3 µM and 13.6 µM, respectively. Further, in the series on SARS-CoV-2 [4], the “Activity in SARS-CoV-2 Hamster Model” value is “No”. Further, the “CL/F, elimination clearance … (%RSE)” value in series [8] is given as 626 (11.9) mL/h. In addition, the “VC/F, central volume … (%RSE)” value in series [8] was 188 (38.6) mL.

Turning to `CC(=O)CCCCn1c(=O)c2c(ncn2C)n(C)c1=O` [Pentoxyfilline, pentoxyfilline], the half-maximal inhibitory concentration (IC50) (with SARS-CoV-2 in Vero cells [2] (setting [9]); in the series on SARS-CoV-2 in Vero cells [2] (setting [10]); in series [5]) was above 50 µM throughout. In the series on SARS-CoV-2 in Vero cells [3], the “Activity In Vitro … Vero Cells” value is listed as “No (Potency EC50 or IC50 < 10 µM)”. The “Activity In Vitro … Calu-3 Cells” value in [6] is listed as “No (Potency EC50 or IC50 < 10 µM)”.

Consider `CCCN(CCC)S(=O)(=O)c1ccc(C(=O)O)cc1` [Probenecid, probenecid], for which the half-inhibitory concentration (IC50) (in the series with SARS-CoV-2 in Vero cells [2] (setting [9]); in the series on SARS-CoV-2 in Vero cells [2] (setting [10]); in series [5]) was above 50 µM each time. Moreover, the “Activity In Vitro … Vero Cells” value with SARS-CoV-2 in Vero cells [3] is “No (Potency EC50 or IC50 < 10 µM)”. The EC50 with SARS-CoV-2 [1] (host cell NHBE) was 0.0013 µM; in the series with SARS-CoV-2 [1] (host cell Vero E6, ref 54), 0.75 µM. Further, the “Activity In Vitro … Calu-3 Cells” value in series [6] is “No (Potency EC50 or IC50 < 10 µM)”.

Turning to `CC1(C)C(=O)N(c2ccc(C#N)c(C(F)(F)F)c2F)C(=S)N1c1ccc(CCCc2ncco2)nc1` [Proxalutamide, proxalutamide], the “Activity In Vitro … Vero Cells” value in the series on SARS-CoV-2 in Vero cells [3] is “No (Potency EC50 or IC50 < 10 µM)”. Moreover, the “Selectivity Index (Vero cells), With Pgp pump inhibitor” value with SARS-CoV-2 in Vero cells [3] (T: toxicity observed) is recorded as below 2.3. For the same compound, in the series on SARS-CoV-2 in Vero cells [3] (T: toxicity observed), the “Selectivity Index (Vero cells), Without Pgp pump inhibitor” value is listed as below 1.6. Moreover, the values for the IC50 (in the series on SARS-CoV-2 in Vero cells [3] (setting [13]); with SARS-CoV-2 in Vero cells [3] (setting [11]); in series [6]) were 21.5 µM, 30.3 µM and 14.5 µM, respectively. In the series with SARS-CoV-2 [1] (host cell LNCaP Cells), the EC50 is 0.097 µM. For the same compound, the “Activity In Vitro … Calu-3 Cells” value in [6] is recorded as “No (Potency EC50 or IC50 < 10 µM)”.

For `CC(C)c1nc(CN(C)C(=O)N[C@H](C(=O)N[C@@H](Cc2ccccc2)C[C@H](O)[C@H](Cc2ccccc2)NC(=O)OCc2cncs2)C(C)C)cs1` [Ritonavir, ritonavir], the half-maximal effective concentration (EC50) with SARS-CoV-2 [1] (host cell Vero E6, ref 31) is above 100 µM; in the series on SARS-CoV-2 [1] (host cell Vero E6, ref 32), above 50 µM; with SARS-CoV-2 [1] (host cell VeroE6/TMPRSS2), 8.6 µM.

As to `O=C(Nc1ncc([N+](=O)[O-])s1)c1ccccc1O` [Tizoxanide, tizoxanide], the selectivity ratio in the series “in vitro” (With Pgp pump inhibitor, T: toxicity observed) is above 21.7; in the series “in vitro” (Without Pgp pump inhibitor, T: toxicity observed), above 7. The half-maximal inhibitory concentration (IC50) with SARS-CoV-2 in Vero cells [2] (setting [9]) worked out at 2.3 µM; in the series with SARS-CoV-2 in Vero cells [2] (setting [10]), 7.2 µM; in series [5] it was 14.3 µM.

In the case of `NCCC(Oc1ccc(C(F)(F)F)cc1)c1ccccc1` (centres unmarked) [norfluoxetine], the “FFP, fraction undergoing first-pass metabolism, population estimate (%RSE)” value in series [7] (hamster 97 g) is 0.323 (11). Moreover, in series [7] (setting [12]), the “CL/F, elimination clearance … (%RSE)” value was 93.3 (6.3) mL/h and the “VC/F, central volume … (%RSE)” value is 2740 (5.7) mL.

Broadly, the EC90 is the concentration needed for an effect of 90%. With bemnifosbuvir, the “Activity In Vitro … Vero Cells” value with SARS-CoV-2 in Vero cells [3] is reported as “No (Potency EC50 or IC50 < 10 µM)”. For the same compound, the IC50 in the series with SARS-CoV-2 in Vero cells [3] (setting [13]) was above 25 µM; in the series with SARS-CoV-2 in Vero cells [3] (setting [11]) it was above 25 µM; in [6] it was above 50 µM. The “Activity in SARS-CoV-2 Hamster Model” value was “No ^d” in the series with SARS-CoV-2 [4] and “no activity” with SARS-CoV-2 [4] (listed as bemnifosbuvir (AT-527)). Further, the EC90 in the series with SARS-CoV-2 [1] (host cell HAE, AT-511, free base of AT-527 used) was 0.47 µM. For the same compound, the “Activity In Vitro … Calu-3 Cells” value in series [6] was “No (Potency EC50 or IC50 < 10 µM)”.

Take ivermectin: the “Activity In Vitro … Vero Cells” value in the series with SARS-CoV-2 in Vero cells [3] is recorded as “Yes (Potency EC50 or IC50 < 10 µM)”. Further, the 50% inhibitory concentration (IC50) in the series with SARS-CoV-2 in Vero cells [3] (setting [13]) was 1.1 µM; in the series with SARS-CoV-2 in Vero cells [3] (setting [11]) it was 4.3 µM; in the series on SARS-CoV-2 [1] (Vero-hSLAM cells, read-out: IC50, medium), 2.8 µM; in [6], 8.9 µM. The “Activity in SARS-CoV-2 Hamster Model” value in the series with SARS-CoV-2 [4] is on record as “No”. For the same compound, the EC50 in the series on SARS-CoV-2 [1] (host cell Vero E6, ref 22) is 1.7 µM; in the series on SARS-CoV-2 [1] (host cell Vero E6, ref 38), 2.3 µM; in the series with SARS-CoV-2 [1] (host cell not given) it was 2 µM. In addition, in series [7] (compared to PO administration), the “Effect of SC administration on F” value is reported as 0.656 (15.7). Further, the “Effect of SC administration on KA” value in series [7] (compared to PO administration) is 2.05 (50.0). Further, in [7] (compared to PO administration), the “Effect of SC administration on MTT” value is on record as -0.85 (5.61). Also, the “MTT, mean transit time, population estimate (%RSE)” value in series [7] (hamster 120 g) is on record as 0.478 (7.42) h. Besides, the “CL/F, elimination clearance … (%RSE)” value in series [7] (setting [12]) is given as 13.3 (0.160) mL/h. Moreover, the “KA, absorption rate constant, population estimate (%RSE)” value in series [7] (setting [12]) was 0.531 (8.35) h-1. In addition, the “Activity In Vitro … Calu-3 Cells” value in series [6] was “Yes (Potency EC50 or IC50 < 10 µM)”.
